Assay results: US5294618A, “Octahydrobenzisoquinoline derivatives as antipsychotic agents” (Merck Sharp & Dohme Limited, priority 1989, dated 1994)

Tests used:
dopamine D2 receptors = conditions: cited from earlier work
sigma recognition site = conditions: cited from earlier work
sigma sites = biological target: T1, sigma sites (Mus musculus, UniProt O55242); assay: Displacement of tritiated (+)-SKF 10047 sigma ligand in vivo; conditions: sc, s.c. dosing, read-out: effective dose for displacing 50% of ligand (ED50)
T1 construct: displace tritiated sigma ligands in vivo; from tissue; host or cells: sites in the living animal after s.c. dosing
T1 sequence (O55242 whole entry): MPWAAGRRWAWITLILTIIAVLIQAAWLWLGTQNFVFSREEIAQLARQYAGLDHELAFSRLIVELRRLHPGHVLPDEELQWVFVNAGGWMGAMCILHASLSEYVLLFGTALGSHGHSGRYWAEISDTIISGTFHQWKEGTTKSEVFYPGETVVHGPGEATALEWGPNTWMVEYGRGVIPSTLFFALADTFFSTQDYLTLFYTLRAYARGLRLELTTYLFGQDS
Protocol: The ability of the test compounds to displace tritiated sigma ligands in vivo was determined by a modification of the method of Ferris et al., Life Sci., 1986, 38, 2329. In these experiments the sigma ligand used was tritiated (+)-SKF 10047.

[1] = Indian J. Chem., Sect. B, 1979, 17, 239; cited from earlier work
[2] = test system: N-methyl-D-aspartate (NMDA) ion-channel complex; conditions: cited from earlier work

C[C@@H]1CN(CCCn2c3ccccc3c3ccccc32)C[C@H](C)N1 [rimcazole]
activity at dopamine D2 receptors (dopamine D2 receptors): essentially inactive
potency/affinity at sigma sites (sigma recognition site): only moderate potency

c1ccc2c(c1)CC[C@@H]1CN(C3CCCCC3)CC[C@@H]21 (relative stereo) [Example 4, trans-3-Cyclohexyl-1,2,3,4,4a,5,6,10b-octahydrobenz[f]isoquinoline]
ED50 (sigma sites): < 1 mg/kg

O=C(CCCN1CCC2c3ccccc3CCC2C1)c1ccc(F)cc1 (stereo not drawn) [3-[3-(4-fluorobenzoyl)propyl]-1,2,3,4,4a,5,6,10b-octahydrobenz[f]isoquinoline]
CNS depressant activity [1]: weak CNS depressant activity
hypotensive activity [1]: significant hypotensive activity

O=C(CCCN1CCC(O)(c2ccc(Cl)cc2)CC1)c1ccc(F)cc1 [haloperidol]
relative potency at sigma sites versus D2 receptors (sigma recognition site; sigma sites and D2 receptors): equally potently

CCCCN1CC[C@H]2c3ccccc3CC[C@@H]2C1 (relative stereo) [Example 2, trans-3-Butyl-1,2,3,4,4a,5,6,10b-octahydrobenz[f]isoquinoline]
ED50 (sigma sites): < 1 mg/kg

C=CCN1CCC2(C)c3cc(O)ccc3CC1C2C (stereo not drawn) [N-allylnormetazocine (SKF 10047), N-allylnormetazocine]
interaction with NMDA ion-channel complex [2]: interacts strongly
potency/affinity at sigma sites (sigma recognition site): having an affinity
